Reference: US20260345798A1, “COMPOUNDS AND METHODS OF USE THEREOF” (Virginia Commonwealth University, priority 2023, published 2026)
Residues, ends and D or L forms follow the SMILES beside them.

What was measured:
MDA-9/Syntenin [1] = biological target: T1, MDA-9/Syntenin (Homo sapiens, UniProt O00560); test: Microscale thermophoresis (MST) binding affinity; conditions: His-tagged recombinant MDA-9/Syntenin 175 nM, PBS-T pH 7.4, 25 °C, ± S.E., read-out: dissociation constant (KD)
T1 sequence (O00560 1-298): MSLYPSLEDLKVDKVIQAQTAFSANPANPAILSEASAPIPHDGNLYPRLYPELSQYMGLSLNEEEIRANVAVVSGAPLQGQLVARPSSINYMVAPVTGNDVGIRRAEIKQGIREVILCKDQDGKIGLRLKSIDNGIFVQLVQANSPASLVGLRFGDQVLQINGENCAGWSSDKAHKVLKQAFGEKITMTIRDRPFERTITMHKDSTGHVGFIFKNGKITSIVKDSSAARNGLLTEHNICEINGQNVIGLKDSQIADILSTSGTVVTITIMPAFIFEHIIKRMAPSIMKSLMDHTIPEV
Experimental: FIG. 1C is a binding curve of IVMT-Rx-3 bound to MDA-9/Syntenin. The binding constant Ka was measured from the binding curve generated through a microscale thermophoresis (MST) assay.
Binding affinity was measured using microscale thermophoresis (MST) experiments performed on a Monolith NT. Automated instrument (NanoTemper Technologies GmbH, Munich, Germany). His-tagged MDA-9/Syntenin was first labeled with RED-tris-NTA (λEX-650 nm, λEM=670 nm; Cat #MO-LO18) according to the manufacturer's protocol. Briefly, 700 nM MDA-9 in 100 mM phosphate-buffered saline, pH 7.4, containing 0.05% Tween 20 (PBS-T) was added to an equal volume of 100 nM RED-tris-NTA in PBS-T and the mixture was incubated at room temperature for 30 min, centrifuged at 15,000 g for 10 min at 4 °C, and the supernatant containing the labeled protein was transferred to a new tube for use in affinity measurements. […] After a 10-min incubation, the samples were loaded into premium capillary chips and thermophoretic measurements were performed (25 °C, 27% excitation power, medium MST power, 20 s laser on) to follow changes in normalized fluorescence (Fnorm) at different IVMT-Rx-3 concentrations (FIG. 1C). These changes were analyzed using the standard hyperbolic binding isotherm (SigmaPlot) to obtain the affinity of IVMT-Rx-3 for MDA-9/Syntenin. […]

MDA-9/Syntenin [2] = biological target: T1, MDA-9/Syntenin; test: NMR titration / ITC binding and HSQC mapping
[3] = PK study in mice, IV and IP; type: in vivo
Experimental: These studies were conducted at the Sanford-Burnham Pharmacology Core facility for measurements of IVMT-Rx-3 in plasma after dosing.
The chemical formula of IVMT-Rx-3 (PDZ1/2i) is provided as FIG. 1A, and synthesis schema is described above in Chemical Example 1. Docked structure of IVMT-Rx-3 in complex with MDA-9/Syntenin is provided as FIG. 1B. After confirming the synthesis product using different analytical methods, e.g., HPLC, LC/MS and NMR (FIGS. 8A-8F), the dissociation constant of IVMT-Rx-3-recombinant MDA-9/Syntenin complex was measured to be 63+/−11 μM using microscale thermophoresis (MST) analysis (FIG. 1C). In order to assess if this hybrid chimeric molecule (small molecule linked to a peptide) was suitable for cellular and in vivo assays, initial PK studies in mice were performed with IVMT-Rx-3 administered both IV (5.0 mg/kg) and IP (50.0 mg/kg), and compound concentration in serum was measured at the indicated times (FIG. 1D).

MMP-2 and MMP-9 = test: Gelatin zymography of conditioned media; type: cell-based, human; conditions: A-375 and C8161.9 cells, 10, 25, 50 μM, 24 hrs
Experimental: FIG. 5B is images of zymography assays of MMP-2 and MMP-9 activity in A-375, C8161.9 cells treated with IVMT-Rx-3 at varying doses, and histograms showing the calculated intensity from the zymography assays. *: Statistical significance (p<0.05).
Tumor cells were treated with different doses of IVMT-Rx-3 (10, 25, and 50 μM) for 24 hrs. The cells were then cultured in serum-free medium overnight. Conditioned media (serum free media) collected on the next day was quantified and equal amounts of protein were run in a 7.5% SDS-polyacrylamide gel electrophoresis containing 1.5 mg/mL gelatin. The gels were washed vigorously with shaking 3×in 2.5% Triton X-100 solution to remove the SDS. The gel was then placed in the developing buffer [50 mM/L Tris-HCl (pH 7.5), 0.05% NaN3, 5 mM/L CaCl2), and 1 μM/L ZnCl2] 37 °C overnight. Lastly, the gels were stained with Amido black in 10% acetic acid followed by de-staining for 1 hr. MMP activities as observed through gelatinolysis were measured as clear zones of white strips against a blue background (21).

B16 melanoma cells = test: Boyden chamber invasion assay, B16 cells; type: cell-based; conditions: B16 mouse melanoma cells
Experimental: FIG. 13A is a series of photomicrographs of B16 melanoma cells treated with IVMT-Rx-3 at varying concentrations, as well as a histogram showing quantification of the average percentage (of control) of invaded cells. Invasion was assayed using a Boyden chamber. *: Statistical significance (p<0.05).
Invasive phenotype was measured using a Boyden Chamber Assay as described previously (6,8,18). Briefly, 25,000 cells were plated on the upper chamber of the trans well in FBS free media and allowed to invade the Matrigel layer towards the bottom chamber supplemented with complete media. Twenty-four hr. after plating, the invaded cells were fixed and counted under a bright field microscope.

IL-6, IL-10, IL-16 = IL-6, IL-10, IL-16 mRNA by semiquantitative RT-PCR, human melanoma cells; type: cell-based; conditions: human melanoma cells (A-375, C8161.9)
Experimental: FIG. 14 is a series of histograms showing the IL-6, IL-10, and IL-16 mRNA fold change in RNA lysates prepared from A-375, C8161.9, and B16 cells treated with IVMT-Rx-3 at varying concentrations as indicated.
Total cellular RNA was extracted using an RNAeasy kit (Qiagen, Germany) as described previously (8,9). All Taqman probes used in this study were obtained from Applied Biosystems (Applied Biosystems, Foster City, CA). Real time PCR was performed using an ABI ViiA7 fast real-time PCR system (Applied Biosystems, Foster City, CA).

[4] = Toxicity in pre-clinical animal models; conditions: in vivo
MDA-9/Syntenin [5] = test: MDA-9/Syntenin protein expression; type: cell-based

Kd (MDA-9/Syntenin [1]): 63 µM
Kd (MDA-9/Syntenin [2]; ITC, fitted to a single binding event, NMR titration provides similar values, read-out: overall dissociation constant of the complex, Kd): < 1 µM
induction of chemical shifts (NMR mapping) (MDA-9/Syntenin [2]; NMR mapping studies): induces chemical shifts in both domains
perturbation of Met201 (PDZ2) and Met188 (PDZ1) (MDA-9/Syntenin [2]; [13C,1H]-HSQC, 20 μM 13C-Met-labeled MDA-9/Syntenin, 40 μM compound): both clearly perturbed
SMILES: Cc1cc(NC(=O)c2nc3[nH]c4c(c(=O)n3n2)CCC4)c(C)cc1NC(=O)CCOCCC(=O)N[C@H](C(=O)N[C@@H](CC(N)=O)C(=O)N[C@@H](CCC(=O)O)C(=O)N[C@@H](Cc1ccc(O)cc1)C(=O)N[C@@H](Cc1ccc(O)cc1)C(=O)N[C@H](C(=O)O)C(C)C)[C@@H](C)O [IVMT-Rx-3] (HELM PEPTIDE1{[Cc1cc(NC(=O)c2nc3[nH]c4c(c(=O)n3n2)CCC4)c(C)cc1NC(=O)CCOCCC(=O)[*:2]].T.N.E.Y.Y.V}$$$$V2.0)
persistence in vivo ([3]; IV 5.0 mg/kg and IP 50.0 mg/kg): long-lived in vivo
bioavailability ([3]; mouse, serum, IP 50.0 mg/kg (IV 5.0 mg/kg)): 10%
MMP activity (zymography) (MMP-2 and MMP-9): lower activity in treated cells
invasion of B16 cells (B16 melanoma cells): inhibition of invasion
IL-6, IL-10, IL-16 expression (IL-6, IL-10, IL-16): Down-regulation
toxicity in pre-clinical animal models [4]: without provoking toxicity
effect on MDA-9/Syntenin protein expression (MDA-9/Syntenin [5]): does not affect MDA-9/Syntenin protein expression
